From US8685439B2, “Method for the treatment and prevention of eyelid swelling” (Aciex Therapeutics, Inc., priority 2006, dated 2014)

Legend:
morning eyelid swelling [1] = assay: Treatment of morning eyelid swelling (eyelid edema), eyelid volume by 3D scanner, treated eye vs untreated eye; assay type: in vivo, human; conditions: for reduction of morning eyelid swelling (result in words): topical to one eye, other eye untreated, 3D scanner
Description: In this study, the efficacy of naphazoline 0.1% ophthalmic solution was evaluated for treatment for eyelid edema. The eyelid volume for 11 subjects participating in the study was recorded in the afternoon of Day 1 and again upon arrival to the clinic the following morning (Day 2). […] The natural progression of morning eyelid swelling, as measured using 3D scanning technology is depicted in FIG. 10. The increase ranged from 14 mm^3 to 659 mm^3. Subjects were then dosed with naphazoline 0.1% (vasoconstrictor) in the right eye and eyelid volume was assessed at 5, 10, 15, 30, and 120 minutes following treatment using a 3-D scanner. […] A summary of all the patient data is depicted if FIG. 3L.
In a preliminary study with a similar design to that described above, NaCl 5% ophthalmic solution was evaluated as a potential treatment for eyelid edema. […] Eyelid swelling was assessed using a 3-D scanner at 5, 10, 15, 20, 30, and 120 minutes post-treatment. […] In one subject, this reduction was pronounced and was present through the 120 minute assessment time point. In the remaining three patients, treatment was not effective.
A total of 6 subjects (male, between the ages of 25 and 29) were evaluated. At the start of the study, five (5) baseline scans were performed per subject and eye using a 3D scanner. The next day, subjects were asked to five (5) scans of each eye, identical to Visit 1, were then taken.
Subjects received the 2 drops (40 μl each) of the combination treatment, with one minute apart each drop in one eye and no treatment in the other eye. Five (5) scans of each eye were taken, identical to Visit 1, 20 minutes after second drop instillation. Subjects were asked to grade their eyelid swelling post treatment. Digital photos were also taken at baseline and at 20 minutes post treatment.

morning eyelid swelling [2] = assay: as above; assay type: in vivo, human; conditions: topical to one eye, other eye untreated

## CNC[C@H](O)c1cccc(O)c1 [0.25% phenylephrine formulation, phenylephrine, reference compound]
Morning eyelid swelling [1]
  reduction of morning eyelid swelling (result in words): did reduce morning eyelid swelling

## [Cl-].[Na+] [NaCl 5% ophthalmic solution, sodium chloride]
Morning eyelid swelling [1]; 6 subjects
  patients in whom treatment was not effective: three
Morning eyelid swelling [1]; FIG. 4G
  mean change from baseline versus negative controls: numerically superior to negative controls, though the differences were not statistically significant
Morning eyelid swelling [1]; present through the 120 minute assessment time point, 6 subjects
  subjects with pronounced reduction in eyelid swelling: one
Morning eyelid swelling [1]; through 15 minutes post-instillation, 6 subjects
  patients with a reduction in eyelid swelling: Three
Morning eyelid swelling [1]
  reduction of morning eyelid swelling (result in words): caused a reduction of eyelid swelling in several patients
Morning eyelid swelling [2]
  reduction of morning eyelid swelling (result in words): some efficacy

## OC[C@@H](O)[C@@H](O)[C@H](O)[C@H](O)CO [mannitol 12.5% solution, mannitol]
Morning eyelid swelling [1]
  reduction of morning eyelid swelling (result in words): did reduce morning eyelid swelling

## c1ccc2c(CC3=NCCN3)cccc2c1 [naphazoline 0.1%, naphazoline, reference compound]
Morning eyelid swelling [1]
  reduction of morning eyelid swelling (result in words): demonstrated efficacy
Morning eyelid swelling [1]; up to the 30 minute timepoint
  subjects with greater decrease in eyelid volume in treatment eye than non-treatment eye: 9 out of 11
Morning eyelid swelling [1]; up to the 120 minute timepoint
  subjects with greater decrease in eyelid volume in treatment eye than non-treatment eye: 7 out of 11
Morning eyelid swelling [2]; listed as naphazoline 0.5% solution
  reduction of morning eyelid swelling (result in words): caused a reduction of eyelid swelling in most subjects
